Experimental data published in US11985974B2, “Antimicrobial ferulic acid derivatives and uses thereof” (WISCONSIN ALUMNI RESEARCH FOUNDATION, priority 2014, dated 2024).

Legend:
P. sojae (field isolate) = experiment: Colony growth of P. sojae on plates; format: cell-based, Phytophthora sojae; details: 0, 500, 1,000, 1,500 μg/mL, 7 d, P<0.01
Protocol: To test inhibition in liquid culture, a dose curve of 0, 125, 250, and 500 μg/mL poacic acid in 100 mL potato dextrose broth (n=3) was used. Cultures of S. sclerotiorum strain 1980 were inoculated with 100 μL homogenized mycelia and grown at 25° C. for 48 h. The mycelia in the liquid media were dried and weighed. The growth inhibition of poacic acid on solid agar cultures (potato dextrose agar) was assessed by generating replicate plates (n=3) containing 0, 125, 250, and 500 μg/mL poacic acid. Plates were inoculated with an actively growing plug of S. sclerotiorum and grown at 25° C. The mycelial radial growth after 48 h was measured Inhibition of S. sclerotiorum in planta was tested by inoculating detached soybean leaves of the commercial variety Williams 82 with an agar plug of actively growing S. sclerotiorum mycelia. Leaves were treated one time before inoculation with either an aerosol spray of water with DMSO (control) or a 500 μg/mL solution of poacic acid. Leaves were incubated in a moist environment, and lesion development was monitored up to 120 h postinoculation. […] The growth inhibition of poacic acid was assessed at 0, 500, 1,000, and 1,500 μg/mL in replicate plates (n=3). […] Colony diameter was monitored for each treatment in a time-course experiment. […]

[1] = test system: S. cerevisiae (BY4741 his3Δ::KanMX); experiment: Multivariate morphological analysis (CalMorph); format: cell-based, Saccharomyces cerevisiae
Protocol: Cells of budding yeast S. cerevisiae (BY4741 his3Δ::KanMX; hereafter, his3Δ) were cultured in 2 mL 1% Bacto yeast extract (BD Biosciences), 2% Bacto peptone (BD Biosciences), and 2% glucose (YPD) with 0, 25, 50, 75, 100, or 125 μg/mL poacic acid or a DMSO control at 25° C. for 16 h until the early log phase. The maximum concentration of the drug (125 μg/mL) was determined based on the growth inhibition rates (10%). Cell fixation, staining, and observation were performed (n=5) as described previously (Ohya et al. 2005). Images of cell shape, actin, and nuclear DNA were analyzed using the image processing software CalMorph (version 1.2), which extracted a total of 501 morphological quantitative values from at least 200 individual cells in each experiment (Ohya et al. 2005). Images were processed using Photoshop CS2 (Adobe Systems) for illustrative purposes.
To assess the morphological similarity between the cells treated with poacic acid and nonessential deletion mutants or cells treated with other cell wall-affecting drugs, their morphological profiles were compared as described previously (Ohnuki et al. 2010). To identify functional gene clusters, the most significant similar mutants (43 genes, P<0.01 after Bonferroni correction, t test) were selected as a query for GO term analysis (GO term finder in the Saccharomyces genome database).
To extract independent and characteristic features of morphology induced by poacic acid, a two-step principal component analysis was performed as described previously (Ohnuki et al. 2012). To compare phenotypic noise in the yeast population (poacic acid vs. DMSO), the noise score was calculated as described previously (Yvert et al. 2013).

[2] = test system: yeast deletion collection; experiment: Chemical genomic analysis of yeast deletion collection; format: cell-based, Saccharomyces cerevisiae
Protocol: Chemical genomic analysis of poacic acid was performed as described previously (Parsons et al. 2006, Fung et al. 2014). The tested yeast deletion collection had ˜4,000 strains using the genetic background described by Andrusiak (Andrusiak 2012). The optimal inhibitory concentration of poacic acid for chemical genomic profiling [70-80% growth vs. solvent control in yeast extract-peptone-galactose medium after 24 h of growth] was determined using an eight-point dose curve. A concentration of 88 μg/mL inhibited growth within this range; 200-μL cultures of the pooled deletion collection of S. cerevisiae were grown with 88 μg/mL poacic acid (n=3) or a DMSO control in triplicate for 48 h at 30° C. Genomic DNA was extracted using the Epicentre MasterPure Yeast DNA Purification Kit. Mutant-specific molecular barcodes were amplified with specially designed multiplex primers (Smith et al. 2009). The barcodes were sequenced using an Illumina MiSeq. Replicates of each condition, poacic acid (n=3) or DMSO (n=2), were sequenced. The barcode counts for each yeast deletion mutant in the presence of poacic acid were compared to the DMSO control conditions to determine sensitivity or resistance of individual strains (the chemical genetic interaction score) (Parsons et al. 2006). To determine a P value for each top sensitive and resistant mutant, we used the EdgeR package (Robinson et al. 2014, Robinson et al. 2010). A Bonferroni-corrected hypergeometric distribution test was used to search for significant enrichment of GO terms among the top 10 sensitive and resistant deletion mutants (Boyle et al. 2004). To understand the pathways that were most affected by poacic acid, we developed a protein complex/pathway score based on the summation of the z scores for each complex/pathway (Pathway z score). Correlation of the chemical genomic profile of poacic acid with the yeast genetic interaction network was performed as previously described (Costanzo et al. 2010).
For each complex, the chemical genetic interaction score of the genes in the complex with the compound was summed. To determine significance, the expectations for such a sum for random sets of genes of equal size were calculated. The random sets of equal size were expected to have means equal to the background mean and SDs equal to the background SD/sqrt(n). With this information, a z score (number of SDs from the expected mean) for each complex or pathway can be computed: Pathway z-score=(Σ−μ)/(σ×sqrt(n)), where Σ=sum of the chemical genetic interaction scores of genes in the complex, μ=mean of the chemical genetic interaction scores of the compounds with all genes studies, σ=SD of chemical genetic interaction scores of the compounds with all genes in the study, and n=size of the complex. Multivariate Morphological Analysis

COc1cc(/C=C/c2cc(/C=C/C(=O)O)cc(OC)c2O)ccc1O [poacic acid, (E)-4-Hydroxy-3-{2-[(E)-4-hydroxy-3-methoxystyryl]}-5-methoxycinnamic acid] was tested, and the colony growth (P. sojae (field isolate)) was “significantly reduces colony growth”, the bud neck size ([1]; 0-125 μg/mL, 16 h) was “dose-dependent increase in bud neck size” and the “heterogeneity of cell morphology” value ([1]; 0-125 μg/mL, 16 h) was “heterogeneous morphologies”. For the same compound, the inhibition at 125 µg/mL ([1]; Saccharomyces cerevisiae, read-out: growth inhibition rates) was 10%, the “morphological correlation with other cell wall-affecting compounds” value ([1]; vs micafungin, echinocandin B and other cell wall-affecting compounds) was “lower morphological correlations” and the “growth vs. solvent control” value ([2]; 88 μg/mL, yeast extract-peptone-galactose medium, 24 h) was 70-80%. The “Z Score” value ([2]; ACK1 deletion mutant, sensitive) was “ACK1 −9.09 1.39E”, the “Z Score” value ([2]; ALG6 deletion mutant, sensitive) was “ALG6 −8.30 1.82E” and the “Z Score” value ([2]; BCK1 deletion mutant, sensitive) was “BCK1 −12.91 2.58E”. The “Z Score” value ([2]; CSG2 deletion mutant, resistant) was “CSG2 5.89 1.57E”, the “Z Score” value ([2]; CWH43 deletion mutant, sensitive) was “CWH43 −10.99 7.98E” and the “Z Score” value ([2]; DFG5 deletion mutant, resistant) was “DFG5 5.51 1.34E”. For the same compound, the “Z Score” value ([2]; DSF2 deletion mutant, resistant) was “DSF2 5.32 6.68E”, the “Z Score” value ([2]; EMC4 deletion mutant, sensitive) was “EMC4 −7.92 1.90E” and the “Z Score” value ([2]; ERG2 deletion mutant, sensitive) was “ERG2 −7.80 4.76E”. For the same compound, the “Z Score” value ([2]; FYV8 deletion mutant, sensitive) was “FYV8 −9.11 1.11E”, the “Z Score” value ([2]; LCL1 deletion mutant, resistant) was “LCL1 5.79 4.51E” and the “Z Score” value ([2]; NBP2 deletion mutant, resistant) was “NBP2 5.43 1.57E”. For the same compound, the “Z Score” value ([2]; NUP170 deletion mutant, resistant) was “NUP170 5.33 2.79E”, the “Z Score” value ([2]; PIB2 deletion mutant, resistant) was “PIB2 4.96 2.79E” and the Pathway z score ([2]; PKC pathway (most sensitive pathway), 88 μg/mL) was −7.85. The “Z Score” value ([2]; RGD1 deletion mutant, sensitive) was “RGD1 −10.16 1.21E”, the “Z Score” value ([2]; ROM2 deletion mutant, sensitive) was “ROM2 −9.47 8.88E” and the “Z Score” value ([2]; RPL21B deletion mutant, resistant) was “RPL21B 4.81 1.11E”. The “Z Score” value ([2]; RTS1 deletion mutant, resistant) was “RTS1 5.39 6.26E”, the “Z Score” value ([2]; SNG1 deletion mutant, sensitive) was “SNG1 −7.91 8.96E” and the “Z Score” value ([2]; SUR1 deletion mutant, resistant) was “SUR1 5.21 5.34E”.
